Earlier results on two molecules are cited in US12133847B2, “Pharmaceutical composition and preparation method therefor” (Shenzhen Pharmacin Co., Ltd., priority 2014, dated 2024).

Structures can show the parent of a compound that is named as a salt. Where two headings read alike, the source gives them in different places.

For series [1] the following is noted: in vivo.

Consider `CCCCCCOC(=O)NC(=N)c1ccc(NCc2nc3cc(C(=O)N(CCC(=O)OCC)c4ccccn4)ccc3n2C)cc1` [Dabigatran etexilate mesylate, dabigatran etexilate mesylate], for which the Solubility entry is “high solubility” (in acidic media); “very poor solubility” (in neutral and alkaline media); “substantially insoluble” (physiological conditions, in the intestine near pH 7.0).

In the case of `[H]/N=C(/N)c1ccc(NCc2nc3cc(C(=O)N(CCC(=O)O)c4ccccn4)ccc3n2C)cc1` [dabigatran], the Oral bioavailability result in series [1] is reported as “very low oral bioavailability”.
